Converted amounts (≈) assume the structure as drawn. “And” between values parts separate entries of the source, which are not always exact repeats. Identical values can stand only once.
Experiments:
Escherichia coli [1] = test: Tested for antibacterial activity as minimum inhibitory concentration against Escherichia coli KL-16 in the absence of polymyxin B nonapeptide (PBMN) at 0 ug/mL; format: functional
Escherichia coli [2] = test: Tested for antibacterial activity as minimum inhibitory concentration against Escherichia coli KL-16 in the presence of polymyxin B nonapeptide (PBMN) at 1 ug/mL; format: functional
Escherichia coli [3] = test: Tested for antibacterial activity as minimum inhibitory concentration against Escherichia coli-ss in the absence of polymyxin B nonapeptide (PBMN) at 0 ug/mL; format: functional
Escherichia coli [4] = test: Tested for antibacterial activity as minimum inhibitory concentration against Escherichia coli-ss in the presence of polymyxin B nonapeptide (PBMN) at 1 ug/mL; format: functional
DNA gyrase = DNA gyrase (Escherichia coli, UniProt P0AES4+P0AES6); test: In vitro antibacterial activity was determined as inhibitory concentration causing 50% DNA-gyrase supercoiling inhibition (SCI); format: protein-complex assay
[5] = tested on: Stenotrophomonas maltophilia; test: Tested for antibacterial activity as minimum inhibitory concentration against Pseudomonas maltophilia 1057 in the presence of polymyxin B nonapeptide (PBMN) at 0 ug/mL; format: functional
[6] = tested on: Stenotrophomonas maltophilia; test: Tested for antibacterial activity as minimum inhibitory concentration against Pseudomonas maltophilia 1057 in the presence of polymyxin B nonapeptide (PBMN) at 1 ug/mL; format: functional
Salmonella typhimurium [7] = test: Tested for antibacterial activity as minimum inhibitory concentration against Salmonella Typhimurium 701 in the absence of polymyxin B nonapeptide (PBMN) at 0 ug/mL; format: functional, Salmonella enterica subsp. enterica serovar Typhimurium; settings: Salmonella enterica
[8] = tested on: Staphylococcus epidermidis; test: Tested for antibacterial activity as minimum inhibitory concentration against Staphylococcus epidermidis strain OC2603; format: functional
Staphylococcus aureus = test: Tested for antibacterial activity as minimum inhibitory concentration against Staphylococcus aureus strain OC6538; format: functional
Salmonella typhimurium [9] = test: Tested for antibacterial activity as minimum inhibitory concentration against Salmonella Typhimurium 701 in the presence of polymyxin B nonapeptide (PBMN) at 1 ug/mL; format: functional, Salmonella enterica subsp. enterica serovar Typhimurium
[10] = Escherichia coli, read-out: MIC
[11] = Staphylococcus aureus, read-out: MIC
[12] = Salmonella enterica, read-out: MIC

SMILES | MIC (Escherichia coli [1]) [µg/mL] | MIC (Escherichia coli [2]) [µg/mL] | MIC (Escherichia coli [3]; [10]) [µg/mL] | MIC (Escherichia coli [4]; [10]) [µg/mL] | IC50 (DNA gyrase) | MIC [5] [µg/mL] | MIC [6] [µg/mL] | MIC (Salmonella typhimurium [7]) [µg/mL] | MIC [8] [µg/mL] | MIC (Staphylococcus aureus; [11]) [µg/mL] | MIC (Salmonella typhimurium [9]; [12]) [µg/mL] | MIC (Salmonella typhimurium [9]; Salmonella enterica) [µg/mL] | MIC (Staphylococcus aureus) [µg/mL] | MIC (Escherichia coli [3]) [µg/mL] | MIC (Escherichia coli [4]) [µg/mL] | MIC (Salmonella typhimurium [9])
COc1cc2oc(-c3ccccc3)cc(=O)c2c(O)c1O | > 125 | > 125 | > 125 | > 125 | > 1760 µM | > 125 | > 125 | > 125 | > 125 | > 125 | > 125 |  |  |  |  | 
O=c1c(O)c(-c2ccc(O)c(O)c2)oc2cc(O)cc(O)c12 [QUERCETIN] | > 125 |  | 62.5 (≈ 207 µM) | 2 | 182 µM and 156 µM | > 125 | > 125 | > 125 |  | 62.5 (≈ 207 µM) |  |  | >125 | 31.25 (≈ 103 µM) | 1 | 15.6 µg/mL and 31.25 µg/mL
COc1cc(-c2oc3cc(O)cc(O)c3c(=O)c2O)cc(OC)c1OC | > 125 | > 125 | > 125 | > 125 | > 1390 µM | > 125 | > 125 | > 125 | > 125 | > 125 | > 125 |  |  |  |  | 
O=c1cc(-c2ccc(O)cc2)oc2cc(O)cc(O)c12 [APIGENIN] | > 125 | > 125 | > 125 | 7.8 | 250 µM | > 125 | > 125 | > 125 | > 125 | > 125 | 15.6 |  |  |  |  | 
CCn1cc(C(=O)O)c(=O)c2ccc(C)nc21 [NALIDIXIC ACID] | 2 (≈ 8.61 µM) | 0.5 | 0.5 (≈ 2.15 µM) | 0.125 |  | 62.5 | 15.6 | 3.9 (≈ 16.8 µM) | 250 (≈ 1080 µM) | 500 (≈ 2150 µM) | 2 |  |  |  |  | 
O=c1c(O)c(-c2cc(O)c(O)c(O)c2)oc2cc(O)cc(O)c12 [MYRICETIN] | > 125 | 15.6 | 62.5 (≈ 196 µM) | 3.9 | 707 µM | > 125 | 125 | > 125 | 62.5 (≈ 196 µM) | 125 (≈ 393 µM) | 15.6 |  |  |  |  | 
COc1cccc(-c2cc(=O)c3c(O)cc(O)cc3o2)c1 | > 125 | > 125 | > 125 | > 125 | > 1760 µM | > 125 | > 125 | > 125 | > 125 | > 125 | > 125 |  |  |  |  | 

More lines, main results first:

MIC (Escherichia coli [1]) [µg/mL] | MIC (Escherichia coli [2]) [µg/mL] | MIC (Escherichia coli [3]; [10]) [µg/mL] | MIC (Escherichia coli [4]; [10]) [µg/mL] | IC50 (DNA gyrase) | MIC [5] [µg/mL] | MIC [6] [µg/mL] | MIC (Salmonella typhimurium [7]) [µg/mL] | MIC [8] [µg/mL] | MIC (Staphylococcus aureus; [11]) [µg/mL] | MIC (Salmonella typhimurium [9]; [12]) [µg/mL] | MIC (Salmonella typhimurium [9]; Salmonella enterica) [µg/mL] | SMILES | MIC (Staphylococcus aureus) [µg/mL] | MIC (Escherichia coli [3]) [µg/mL] | MIC (Escherichia coli [4]) [µg/mL] | MIC (Salmonella typhimurium [9])
> 125 | > 125 | > 125 | > 125 | > 1970 µM | > 125 | > 125 | > 125 | > 125 | > 125 | > 125 |  | O=c1cc(-c2ccccc2)oc2cc(O)cc(O)c12 [CHRYSIN] |  |  |  | 
> 125 | 15.6 | 62.5 (≈ 218 µM) | 3.9 | 291 µM | > 125 | > 125 | > 125 | > 125 | > 125 | 31.2 |  | O=c1c(O)c(-c2ccc(O)c(O)c2)oc2cc(O)ccc12 [FISETIN] |  |  |  | 
> 125 | 62.5 | 125 (≈ 492 µM) | 7.8 | 351 µM | > 125 | 125 | > 125 | 31.2 (≈ 123 µM) |  |  | 15.6 | O=c1cc(-c2ccccc2)oc2c(O)c(O)ccc12 [7,8-DIHYDROXYFLAVONE] | 62.5 (≈ 246 µM) |  |  | 
> 125 | > 125 | > 125 | > 125 | > 1670 µM | > 125 | > 125 | > 125 | > 125 | > 125 | > 125 |  | COc1ccc(-c2oc3cc(O)cc(O)c3c(=O)c2O)cc1 [KAEMPFERIDE] |  |  |  | 
> 125 | > 125 | > 125 | > 125 | > 2100 µM | > 125 | > 125 | > 125 | > 125 | > 125 | > 125 |  | O=c1c(O)c(-c2ccccc2)oc2ccccc12 [FLAVONOL] |  |  |  | 
> 125 | > 125 | > 125 | > 125 | > 1850 µM | > 125 | > 125 | > 125 | > 125 | > 125 | > 125 |  | O=c1c(O)c(-c2ccccc2)oc2cc(O)cc(O)c12 [GALANGIN] |  |  |  | 
0.0625 (≈ 0.173 µM) | < 0.015 | < 0.5 | < 0.5 |  | 2 | 1 | 0.125 (≈ 0.346 µM) | ≤ 0.5 | ≤ 0.5 | 0.0625 |  | CC1COc2c(N3CCN(C)CC3)c(F)cc3c(=O)c(C(=O)O)cn1c23 (stereo not given) [OFLOXACIN] |  |  |  | 
> 125 | 7.8 | > 125 | 2 | 10.9 µM | > 125 | > 125 | > 125 | > 125 | > 125 | 31.2 |  | O=c1oc2c(O)c(O)cc3c(=O)oc4c(O)c(O)cc1c4c23 [ELLAGIC ACID] |  |  |  | 
> 125 | 31.2 | 125 (≈ 414 µM) | 3.9 | 1380 µM | > 125 | > 125 | > 125 | 500 (≈ 1650 µM) | 500 (≈ 1650 µM) | 7.8 |  | O=c1c(O)c(-c2cc(O)cc(O)c2)oc2cc(O)cc(O)c12 |  |  |  | 
